Here are results for one compound from patent publication US4088778A, “Method for the treatment of hypertension” (priority 1975, dated 1978).

Data set [1] can be described thus: Experiment on young SHR (rats of spontaneous hypertension). In kind it is in vivo, rats (7-week-old female SHR). Conditions: for dead rats within 6 weeks from the start of the administration: control 5 among 11; for dead rats within 2 weeks from the start of administration: judged pneumonia, control 3. The procedure: (§1) Experiments were conducted by using two classes of rats of spontaneous hypertension (hereinafter referred to as "SHR"; provided by Nippon Rat K.K.) differing in the age. In the first experiment, 9-month-old chronic […] SHR (hereinafter referred to as "old SHR"), and in the second experiment, 7-week-old SHR in which hypertension was advancing (hereinafter referred to as "young SHR") was used.
(B) Experiment on Young SHR:
72 of 7-week-old female SHR (having a body weight of 130 to 175 g) were divided into 9 cages, each consisting of 8 rats. Service water was given as drinking water to rats of two cages among these 9 cages, and these rats were compared with other rats which were given a 1% aqueous solution of sodium chloride as drinking water. In each of the […] cages of rats to which the sodium chloride solution was given, no agent was administered to 2 of 8 rats, 20 mg/Kg of TN was administered to another 2 rats, 100 mg/Kg of TN was administered to still another 2 rats, and 88 mg/Kg of TA was administered to the remaining 2 rats.
After 2 weeks' feeding with the sodium chloride solution, administration was conducted once a day. Within 2 weeks from the start of administration,3 rats in the Control (non-administered) group, one rat in the 20 mg/Kg TN administered group, 3 rats in the 100 mg/Kg TN administered group, 3 rats in the 88 mg/Kg TA administered group and 4 rats in the service water given group were dead. In view of the body weight decrease and the snivel secretion and from the results of autopsy, it was judged that each of them died of pneumonia. The rats that died prior to initiation of the administration were not taken in account in evaluating the experimental results.

Data set [2] can be described thus: Clinical Experiment II: kidney function test. It is filed as in vivo, human patients. Conditions: in mg/dL (unit assumed). The procedure: (§2) 75 patients of hypertension or arteriosclerosis having subjective symptoms were tested. Some of them suffered from complications such as ischemia heart disease and cerebral thrombosis. They are detailed in Table 11.
(§3) Two capsules were administered at one time, and the administration was conducted 3 times per day after eating. The duration of the continuous administration was 4 weeks. Combined use of drugs having the same functions as those of TN (vitamin E drugs, nicotinic acid, its derivatives and peripheral vasolidators) and minor tranquilizers was prohibited.
The kidney function test results are shown in Table 17, from which it will readily be understood that the variation of BUN values was within the normal region.

The nature of data set [3]: Clinical Experiment II: urine test. It is filed as in vivo, human patients. The procedure: as §2, §3
Data set [4] is described as follows: Hypotensive effect on rats of spontaneous hypertension, old SHR. Particulars: 100 mg/kg TN orally once a day. In kind it is in vivo, rats (9-month-old male SHR). How it is done: (B) Hypotensive Effect on Rats of Spontaneous Hypertension:
as §1
(1) Experiment on Old SHR:
40 of 9-month-old male SHR (having a body weight of 360 to 450 g) were divided into 10 groups, each consisting of 4 rats, and each group was placed in a cage. One of the rats in each cage was used as the non-administered control animal, and 20 mg/Kg of TN, 100 mg/Kg of TN and 88 mg/Kg of TA (equimolar to 100 mg/Kg of TN) were administered to the remaining 3 rats, respectively. Each hypotensive agent was orally administered once a day over a period of 4 weeks in the form of a suspension in gum arabic. Gum arabic solution was administered to the Control (non-administered) group. Simultaneously with initiation of the administration, drinking water was exchanged from service water to a 1% aqueous solution of sodium chloride.

Data set [5] is described as follows: Clinical Experiment II: improvement of subjective symptoms. It is filed as in vivo, human patients. The procedure:
as §2, §3
Changes of various subjective symptoms of patients of hypertension were collectively examined, and at the time of termination of the administration, the degrees of improvements were judged and evaluated in both the TN administered group and the P group, to obtain results shown in Table 22.

[6] abbreviates: conclusion of both clinical experiments.

Regarding `Cc1c(C)c2c(c(C)c1OC(=O)c1cccnc1)CCC(C)(CCCC(C)CCCC(C)CCCC(C)C)O2` (racemic) [TN, dl-α-tocopheryl nicotinate], the “dead rats within 6 weeks from the start of the administration” value in data set [1] (20 mg/kg TN, among 13 rats) is 3 rats. Further, the “dead rats within 2 weeks from the start of administration” value in data set [1] (20 mg/kg TN) is listed as “one”. In addition, in data set [1] (100 mg/kg TN, among 11 rats), the “dead rats within 6 weeks from the start of the administration” value was found to be 4 rats. The “dead rats within 2 weeks from the start of administration” value in data set [1] (100 mg/kg TN) is on record as 3 rats. Moreover, the “BUN, Average Value” in data set [2] (after administration, N 27, S.D. ±8.48) is 14.99. In data set [2] (before administration, N 31, S.D. ±6.23), the “BUN, Average Value” was found to be 14.74. Moreover, the “urine specific Gravity, Average Value” in data set [3] (after administration, N 25, S.D. ±5.34) was 1017.92. For the same compound, the “urine specific Gravity, Average Value” in data set [3] (before administration, N 25, S.D. ±5.56) is reported as 1017.56. Moreover, in data set [4] (3rd week), the “difference of the blood pressure between control and administered group” value is “about 30 mm Hg”. In addition, in data set [4] (after 1 week), the “lowering of blood pressure on the average” value was 15 mm Hg. Further, in data set [5] (P group 52.94, P < 0.05), the “Improvement of subjective symptoms: Improvement Ratio” value came to 86.36%. Also, in data set [5] (setting [6]), the “degree of improvement of subjective symptoms versus P group” value is reported as “higher than in the P group”; the “improving rush of blood, dizzy feeling, stiffness in the shoulders, stiffness in the nape, heaviness in the head and insomnia” value is on record as “especially good effects”. Also, the “degree of improvement of subjective symptoms versus P group” value in data set [5] (level of significance lower than 5%) is recorded as “excellent over that in the P group at a level of significance lower than 5%”. Besides, in data set [5] (number of patients, total 22), the “Improvement of subjective symptoms: Not Changed” value was determined as 3, the “Improvement of subjective symptoms: Partial Improvement” value amounted to 6, the “Improvement of subjective symptoms: Remarkable Improvement” value was found to be 7 and the “Improvement of subjective symptoms: Slight Improvement” value amounted to 6. Moreover, the “Improvement of subjective symptoms: Worsened” value in data set [5] (number of patients, total 22) turned out to be 0.
